≈ marks a conversion by molar mass, not a printed value.
Experiments:
Type in all cases: in vivo
diamondback moths = experiment: Test Example 2: pesticidal effects on diamondback moth larvae, sprayed Chinese cabbage; details: for LC50: Plutella xylostella, 48 h, fourth instar larvae, after 2 days, from 20 % emulsifiable concentrates, read-out: LC50 (50 % lethal concentration); for Ratio of effect: relative to DDVP, defined as 1.0
Experimental: The present compounds (1), (2), (3) and (4) were individually formulated according to ordinary procedure into 20 % emulsifiable concentrates. As a control, DDVP was also formulated into a 20 % emulsifiable concentrate.
Each of the above-mentioned emulsifiable concentrates was diluted with water to a test concentration, and 10 ml. of the resulting dilution was sprayed to the potted Chinese cabbages at the stage of 3 to 4 leaves. Subsequently, the cabbage leaves were put in a glass Petri dish of 14 cm. in diameter and 7 cm. in height, and 10 diamondback moth larvae at the fourth instar stage were liberated into the dish. After 2 days, the number of dead and alive larvae was counted to calculate the value of LC50 (50 % lethal concentration).

green rice leafhoppers = experiment: Test Example 1: pesticidal effect on green rice leafhoppers, sprayed rice seedlings; details: for Mortality: 20 % emulsifiable concentrate diluted to 200 times, next day, 1440 min; for KT50 (50 % knock-down time): 20 % emulsifiable concentrate diluted with water to 200 times
Experimental: The present compounds (1), (2), (3), (4), (5) and (6) were individually formulated according to ordinary procedure into 20 % emulsifiable concentrates. As a standard compound, 3,4-dimethylphenyl-N-methyl carbamate [hereinafter referred to as "Meobal" (registered trademark of Sumitomo Chemical Co., Ltd.)] was also formulated into a 20 % emulsifiable concentrate.
In flower pots of 9 cm. in diameter, about 20 rice seedlings per pot were grown to the stage of 3 to 4 leaves. Each of the above-mentioned emulsifiable concentrates was diluted with water to 200 times, and sprayed to the seedlings by use of a turn table. After air-drying, the seedlings were put in a 5 liter glass beaker, which was then covered at the top with gauze. Thereafter, 20 green rice leafhoppers were liberated into the beaker, and the number of knocked down insects was counted with lapse of time to calculate the value of KT50 (50 % knock-down time). On the next day, the number of dead and alive insects was counted to calculate the mortality.

housefly adults = experiment: Test Example 3: pesticidal effects on housefly adults, Campbell's turn table, 0.2 % oil preparations; details: 0.2 % oil preparation, 5 ml, present compounds as dl-trans isomers; for mortality at 0.2 %: Musca domestica, 24 h, after a day
Experimental: dl-Trans isomers of the present compounds (1), (2), (3) and (4) were individually formulated by use of deodorized kerosene into 0.2 % oil preparations. As a control, pyrethrin was also formulated into a 0.2 % oil preparation.
Using the Campbell's turn table [Soap and Sanitary Chemicals; Vol. 14, No. 119 (1938)], 5 ml. of each of the above-mentioned oil preparations was sprayed. When 20 seconds had elapsed after the spraying, the shutter was opened, and a group of about 100 housefly adults were exposed to the settling mist for 10 minutes. Subsequently, the number of knocked down houseflies was counted to calculate the knock-down ratio. The houseflies were then transferred to another cage, fed and allowed to stand for a day at room temperature. Thereafter, the number of dead and alive houseflies was counted to calculate the mortality.

Row | Compound | LC50 (diamondback moths) | Ratio of effect (diamondback moths) | Mortality (green rice leafhoppers) | KT50 (50 % knock-down time) (green rice leafhoppers) | Ratio of knocked down houseflies after 10 minutes (housefly adults) | mortality at 0.2 % (housefly adults)
1 | CC1(C)C(C=C(Cl)Cl)C1C(=O)OC/C=C(\Cl)Cc1ccccc1 (stereo not drawn) [(1), 3-Chloro-4-phenyl-trans-2-butene-1-yl 2',2'-dimethyl-3'-(2",2"-dichlorovinyl)-cyclopropanecarboxylate] | 43 µg/mL (≈ 115 µM) | 8.6 | 100% | 19 min | 100% | 100%
2 | CC1(C)C(C=C(Cl)Cl)C1C(=O)OC/C(Cl)=C(\Cl)Cc1ccccc1 (stereo not drawn) [(6), 2,3-Dichloro-4-phenyl-trans-2-butene-1-yl 2',2'-dimethyl-3'-(2",2"-dichlorovinyl)-cyclopropanecarboxylate] | – | – | 100% | 21 min | – | –
3 | COP(=O)(OC)OC=C(Cl)Cl [DDVP, 0,0-Dimethyl 0-2,2-dichlorovinyl phosphate, reference compound] | 370 µg/mL | – | – | – | – | –
4 | CC1(C)C(C=C(Cl)Cl)C1C(=O)OCC=C(Cl)Cc1ccccc1 (stereo not drawn) [(5), 3-Chloro-4-phenyl-trans-2-butene-1-yl d-trans-2',2'-dimethyl-3' -(2",2"-dichlorovinyl)-cyclopropanecarboxylate] | – | – | 100% | 9 min | – | –
5 | CC1(C)C(C=C(Cl)Cl)C1C(=O)OC/C=C/Cc1ccccc1 (stereo not drawn) [(3), 4-Phenyl-trans-2-butene-1-yl 2',2'-dimethyl-3'-(2",2"-dichlorovinyl)-cyclopropanecarboxylate] | 48 µg/mL (≈ 141 µM) | 7.7 | 100% | 11 min | 100% | 100%
6 | CC1(C)C(C=C(Cl)Cl)C1C(=O)OC/C=C(\Br)Cc1ccccc1 (stereo not drawn) [(2), 3-Bromo-4-phenyl-trans-2-butene-1-yl 2',2'-dimethyl-3'-(2",2"-dichlorovinyl)-cyclopropanecarboxylate] | 56 µg/mL (≈ 134 µM) | 6.6 | 100% | 13 min | 100% | 99%
7 | CC(=CCOC(=O)C1C(C=C(Cl)Cl)C1(C)C)Cc1ccccc1 (stereo not drawn) [(4), 3-Methyl-4-phenyl-2-butene-1-yl 2',2'-dimethyl-3'-(2",2"-dichlorovinyl)-cyclopropanecarboxylate] | 75 µg/mL (≈ 212 µM) | 4.9 | 100% | 15 min | 100% | 98%
8 | CNC(=O)Oc1ccc(C)c(C)c1 [Meobal, 3,4-dimethylphenyl-N-methyl carbamate, reference compound] | – | – | – | 24 min | – | –

— patent US3981903A, “Cyclopropane carboxylic acid esters” (Sumitomo Chemical Company, Limited, priority 1973, dated 1976)
